The values that follow come from US6734168B2, “Endothelial monocyte activating polypeptide II: a mediator which activates host response” (The Trustees of Columbia University in the City of New York, priority 1993, dated 2004).

One assay concerns human umbilical vein ECs. Kind of assay: EC tissue factor activity, Factor VIIa-dependent Factor Xa formation. In kind it is cell-based. As for the experimental part:
Tissue factor activity of monolayers of ECs and MPs was determined (7) after incubation with EMAP II-derived peptides at 37° C. for 4-12 hrs by washing cultures with HEPES (10 MM; pH 7.4), NaCl (137 mM), KCl (4 mM), CaCl2 (3 mM), glucose (10 mM), bovine serum albumin (0.5 mg/ml), and addition of 0.5 ml of the same buffer along with purified human Factor VIIa (1 nM) and Factor X (200 nM) for 45 min at 37° C. Aliquots (0.05 ml) of the reaction mixture (one per well) were withdrawn at 15 min intervals, added to a buffer containing Tris (50 mM; pH 7.9), NaCl (175 mM), EDTA (5 mM) and bovine serum albumin (0.5 mg/ml; 0.05 ml), and the chromogenic substrate Spectrozyme Factor Xa (American Diagnositca, Inc., Greenwich Conn.; 0.01 ml; 2 mM). Cleavage of the substrate was monitored by the change in absorbance at 405 nm (BioKinetics Reader, Winooski, Vt.). Factor Xa concentration was determined by comparison with a standard curve generated with known amounts of purified human Factor Xa. Human, plasma-derived Factors VIIa and X were purified to homogeneity as described (31).
In Vitro Assays of EC, MP, and PMN Functions-Cell-associated tissue factor was assayed by its functional activity, using purified coagulation proteins, and tissue factor mRNA was detected by PCR. […] The concentration of Factor Xa was determined based on a standard curve generated with purified Factor Xa. […]

The test system of another assay is human MPs. Description: Radioligand binding of 125I-[…] to MPs. To be noted: excess / increasing concentrations of unlabelled competitor. As to the method: Radioligand binding studies were performed on human MPs plated in 96-well plates (5-6×10^4 cells/well). Cells were washed twice with Hanks balanced salt solution, and then Dulbecco's Modified Eagle Medium containing HEPES (25 mM; pH 7.4), penicillin/streptomycin (50 U/ml; 50 μg/ml), and bovine serum albumin-fatty acid free (0.5%; Sigma) were added (0.1 ml/well). Cultures were incubated at 4° C. for 2 hrs with ^125I-[…] alone or in the presence of unlabelled peptide/protein. Each well was washed four times over a period of 20 sec, and cell-associated radioactivity was eluted by an acidic buffer (HCl, 0.1 M, pH 2; NaCl, 0.1 M) at 4° C. for 5 min. During the elution period, there was no detachment of cells from the growth substrate. The conditions for incubation and washing used in the binding studies shown in FIG. 3 (2 hrs at 4° C.) were […] to allow binding of ^125I-[…] to reach an apparent maximum, even at the lowest tracer concentrations, and to remove unbound material by washing quickly so that <10% of the cell-bound radioactivity dissociated.

In the case of “ASRLDLRIGRIVTAKY [residues #6-20 from EMAP II, Cys to Arg substitution at position #15, and a C-terminal Tyr]”, the “Induction of tissue factor activity in ECs (Factor VIIa-dependent Factor X activation)” value in the assay on human umbilical vein ECs was “did not demonstrate induction of tissue factor activity”. Moreover, the “Competition for binding of 125I-RIGRIVTAKY to MPs by unlabelled peptide/protein” value in the assay on human MPs is given as “inhibition”.
